The supplement of paper PMC10307832

Legend:
Experiment in all cases: relative viability (nuclei count vs DMSO), 5 days (fraction); higher = more cells survive
[1] = compound: C1/C(=C\C2=CC=CS2)/C(=O)/C(=C/C3=CC=CS3)/C1 + CC(=O)c1c(C)c2cnc(Nc3ccc(N4CCNCC4)cn3)nc2n(C2CCCC2)c1=O [Palbociclib] (partner 0.5 µM)
In short: (§1)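 For relative viability, nuclei counts in treated wells were divided by those in vehicle wells. Lung cancer cell lines had been pin-tool dosed in 1536-well plates the day after seeding and cultured for 5 days, then fixed and stained in one step (final 0.05% Triton X-100, 1% formaldehyde, 1 ug/ml Hoechst) and imaged at 4×. Doses were one drug alone or a fixed anchor-drug dose plus five library-drug doses (not always all listed) in √10 steps, and values are duplicate-plate medians.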

[2] = compound: C1/C(=C\C2=CC=CS2)/C(=O)/C(=C/C3=CC=CS3)/C1 + CCNC(=O)c1noc(-c2cc(C(C)C)c(O)cc2O)c1-c1ccc(CN2CCOCC2)cc1 [Luminespib] (partner 0.01 µM)
In short: as §1

[3] = compound: C1/C(=C\C2=CC=CS2)/C(=O)/C(=C/C3=CC=CS3)/C1 + O=C(CCCCCCC(=O)Nc1ccccc1)NO [Vorinostat] (partner 1 µM)
In short: as §1

TPCA-1 + Bortezomib = compound: C1=CC(=CC=C1C2=CC(=C(S2)NC(=O)N)C(=O)N)F [TPCA-1] + CC(C)C[C@H](NC(=O)[C@H](Cc1ccccc1)NC(=O)c1cnccn1)B(O)O [Bortezomib] (partner 0.002 µM)
In short: as §1

For UMC-11, the relative viability ([1]; first compound 0.2 µM) was 0.308, the relative viability ([1]; first compound 0.6325 µM) was 0.367 and the relative viability ([1]; first compound 2 µM) was 0.322. For the same cell line, the relative viability ([1]; first compound 6.325 µM) was 0.334, the relative viability ([1]; first compound 20 µM) was 0.338 and the relative viability ([2]; first compound 0.2 µM) was 1.02. For the same cell line, the relative viability ([2]; first compound 0.6325 µM) was 0.978, the relative viability ([2]; first compound 20 µM) was 1.05 and the relative viability ([3]; first compound 0.2 µM) was 0.361. The relative viability ([3]; first compound 0.6325 µM) was 0.36, the relative viability ([3]; first compound 2 µM) was 0.43 and the relative viability ([3]; first compound 6.325 µM) was 0.26. For the same cell line, the relative viability ([3]; first compound 20 µM) was 0.394, the relative viability (TPCA-1 + Bortezomib; first compound 0.04 µM) was 0.663 and the relative viability (TPCA-1 + Bortezomib; first compound 0.1265 µM) was 0.667. It also gave a relative viability (TPCA-1 + Bortezomib; first compound 0.4 µM) of 0.798, a relative viability (TPCA-1 + Bortezomib; first compound 1.265 µM) of 0.735 and a relative viability (TPCA-1 + Bortezomib; first compound 4 µM) of 0.134.
